According to patent US8945627B2, “Micelles for the solubilization of gossypol” (priority 2011, dated 2015):
Values joined by “and” are separate entries in the source; they are usually repeats but may differ in a detail not shown here. Equal values may be shown once. Read-outs that look alike come from different tables or passages of the source. One block for each compound: values may come before it.

Columns and labels:
[1] = neutral pH; cited from earlier work
[2] = format: physicochemical
Procedure: Acetone was evaporated from the aqueous micelle solution under reduced pressure using a rotatory evaporator at 60° C.
(§1) Samples for RP-HPLC were prepared by adding acetonitrile (ACN) into each micelle to break it apart and quantify drugs dissolved in ACN.

[3] = format: physicochemical; remark: listed apart in the source
Procedure: Acetone was evaporated from the aqueous micelle solution under reduced pressure using a rotatory evaporator at 60° C. The thin film of “polymer plus drug mixture” was reconstituted with 1 mL of 0.9% saline at 60° C.
as §1

[4] = 200 mg polymer
Procedure: (§2) Supernatant was collected and drug contents were analyzed by RP-HPLC analysis.

[5] = system: ES-2 ovarian multicellular spheroids; experiment: cells; format: cell-based; conditions: read-out: IC50 values (nM), Spheroids (BLI)
Procedure: Surviving cells after treatment were quantified by scanning bioluminescence of luc-ES-2 cells (IVIS optical imaging system).
The images of FIG. 7 were collected using an inverted light microscope on spheroids treated with PEG5k-b-PCL10k micelles representing 1000 nM of total drug concentration. In advance, to obtain luciferase-expressing ES-2 cells, ES-2 cells were transfected with pGL4 with neomycin resistance using Lipofectamine 2,000.
Bioluminescence of surviving cells was quantified and IC50 value was calculated by using Compusyn.

[6] = system: ES-2 ovarian monolayer cells; experiment: cells; format: cell-based
[7] = PEG-b-PCL micelle stability tests (drug quantification)
Procedure: as §2

A549 NSCLC Cells = experiment: In vitro cytotoxicity, resazurin cell viability assay; format: cell-based; conditions: Homo sapiens
Procedure: Cytotoxicity was determined using a resazurin cell viability assay. A549 cells were cultured in RPMI1640, supplemented with 10% FBS, 100 IU/mL penicillin, 100 μg/mL streptomycin, and 2 mM of L-glutamine. The cells were incubated at 37° C., 5% CO2 atmosphere. Exponentially grown cells were detached from the T-flask by adding a Trypsin-EDTA solution.
Each drug was dissolved at 10 mM as a stock solution using dimethyl sulfoxide (DMSO). […] The stock solution was diluted with cell culture media and the final concentration of DMSO was less than 0.1%. […] The fraction of viable cells were determined using a Cell titer Blue® dye assay (Promega, USA) by monitoring using fluorescence at 590 nm (emission). The inhibitory drug concentration (IC50) was determined by the median-effect equation using compusyn software (Combosyn Inc., US). The determination of IC50 was performed in three independent experiments.
The half maximal inhibitory drug concentration (IC50) was determined by the median-effect equation:
[formula] using CompuSyn software (Version 1.0, ComboSyn Inc., US). In the median-effect equation, fa is the fraction of affected cells; D is drug concentration; and m is the Hill slope or kinetic order.

[8] = Stability of the poloxamer micelle solution, 24 hours at ambient temperature; conditions: Pluronic F68 micelles, gossypol + paclitaxel
Procedure: The drugs remaining in the solution were quantified by RP-HPLC described above. The micelle solution was centrifuged at 13,000 rpm for 5 minutes and was then filtered with a 0.45 μm nylon filter to remove any drug aggregates in the micelle solution. The concentration of each drug was compared with that of each drug at initial preparation to estimate the stability of micelle solution.

[9] = singly-loaded poloxamer 188 micelles
[10] = polymer 10 mg/ml, CYP + GSP micelles
[11] = polymer 10 mg/ml, PTX + CYP + GSP micelles
[12] = polymer 10 mg/ml, PTX + CYP micelles
[13] = polymer 10 mg/ml, single drug micelles
[14] = polymer 20 mg/ml, PTX + CYP + GSP micelles
[15] = polymer 100 mg/ml, PTX + CYP + GSP micelles
[16] = polymer 200 mg/ml, CYP + GSP micelles
[17] = polymer 200 mg/ml, PTX + CYP + GSP micelles
[18] = polymer 200 mg/ml, PTX + CYP micelles
[19] = PTX/CYP/GSP poloxamer 188 micelles
[20] = 1-in-1 PEG5k-b-PCL10k micelles, 200 mg polymer
[21] = 1-in-1 micelles, 10× decreased drug loading
[22] = 2-in-1 CYP + GSP micelles, 200 mg polymer
[23] = 2-in-1 CYP + GSP micelles, 10× decreased drug loading
[24] = 2-in-1 PTX + CYP micelles, 200 mg polymer
[25] = 2-in-1 PTX + CYP micelles, 10× decreased drug loading
[26] = 3-in-1 PTX + CYP + GSP micelles, 200 mg polymer
[27] = 3-in-1 PTX + CYP + GSP micelles, 10× decreased drug loading
[28] = PEG5k-b-PCL10k micelles, bioluminescence readout
[29] = PEG5k-b-PCL10k micelles, Celltiter Blue readout, read-out: IC50 values (nM), Monolayer (Celltiter Blue)
[30] = PEG5k-b-PCL10k micelles, bioluminescence readout, read-out: IC50 values (nM), Monolayer (BLI)
[31] = 2-in-1 PTX + GSP micelles, 200 mg polymer
[32] = 2-in-1 PTX + GSP micelles, 10× decreased drug loading

- drug level in water [9]: 210 µg/mL
SMILES: C=CCNC1=C2C[C@@H](C)C[C@H](OC)[C@H](O)[C@@H](C)/C=C(\C)[C@H](OC(N)=O)[C@@H](OC)/C=C\C=C(/C)C(=O)NC(=CC1=O)C2=O [17-AAG, 17-allylamino-17-demethoxygeldanamycin]
- water solubility [1]: about 0.1 mg/mL

SMILES: CC1=C2C[C@H]3[C@@H](CC=C4C[C@@H](O)CC[C@@]43C)[C@@H]2CC[C@]12O[C@@H]1C[C@H](C)CN[C@H]1[C@H]2C [CYP, 11-deoxojervine]
- drug loaded [2, 10]: 1.50 ± 0.50 mg/mL
- drug loaded [2, 11]: 1.03 ± 0.02 mg/mL
- drug loaded [2, 12]: 0.14 ± 0.06 mg/mL
- drug loaded [2, 13]: 0.05 ± 0.03 mg/mL
- drug loaded [2, 14]: 1.25 ± 0.11 mg/mL
- drug loaded [2, 15]: 4.47 ± 0.38 mg/mL
- drug loaded [2, 16]: 3.23 ± 0.99 mg/mL
- drug loaded [2, 17]: 6.2 mg/mL and 6.20 ± 0.49 mg/mL
- drug loaded [2, 18]: 0.89 ± 0.03 mg/mL
- drug loaded [3, 10]: 0.16 ± 0.04 mg/mL
- drug loaded [3, 11]: 0.21 ± 0.07 mg/mL
- drug loaded [3, 12]: 0.03 ± 0.001 mg/mL
- drug loaded [3, 13]: 0.012 ± 0.002 mg/mL
- drug loaded [3, 14]: 0.27 ± 0.07 mg/mL
- drug loaded [3, 15]: 3.55 ± 0.18 mg/mL
- drug loaded [3, 16]: 3.5 ± 0.3 mg/mL
- drug loaded [3, 17]: 5.1 mg/mL and 5.09 ± 0.29 mg/mL
- drug loaded [3, 18]: 0.08 ± 0.02 mg/mL
- % Remaining Day 0 ([4]; CYP/GSP poloxamer 188 micelles): 100 ± 7.4%
- % Remaining Day 1 ([4]; CYP/GSP poloxamer 188 micelles): 106.9 ± 3.4%
- % Remaining Day 0 [4, 19]: 100 ± 4.9%
- % Remaining Day 1 [4, 19]: 101.2 ± 2.3%
- IC50 [5]: 64.8 nM
- IC50 ([6]; read-out: IC50 values (nM), Monolayer (BLI)): 240 nM
- IC50 ([6]; read-out: IC50 values (nM), Monolayer (Celltiter Blue)): 245 nM
- % Remaining Day 0 [7, 20]: 100 ± 10.6%
- % Remaining Day 1 [7, 20]: 96.3 ± 5.0%
- % Remaining Day 0 [7, 21]: 100 ± 7.9%
- % Remaining Day 1 [7, 21]: 96.0 ± 4.4%
- % Remaining Day 0 [7, 22]: 100 ± 8.2%
- % Remaining Day 1 [7, 22]: 91.0 ± 5.3%
- % Remaining Day 0 [7, 23]: 100 ± 5.9%
- % Remaining Day 1 [7, 23]: 96.5 ± 4.4%
- % Remaining Day 0 [7, 24]: 100 ± 11.3%
- % Remaining Day 1 [7, 24]: 97.4 ± 5.7%
- % Remaining Day 0 [7, 25]: 100 ± 5.5%
- % Remaining Day 1 [7, 25]: 94.3 ± 5.3%
- % Remaining Day 0 [7, 26]: 100 ± 6.1%
- % Remaining Day 1 [7, 26]: 36.8 ± 1.5%
- % Remaining Day 0 [7, 27]: 100 ± 4.2%
- % Remaining Day 1 [7, 27]: 87.7 ± 2.6%

SMILES: Cc1cc2c(C(C)C)c(O)c(O)c(C=O)c2c(O)c1-c1c(C)cc2c(C(C)C)c(O)c(O)c(C=O)c2c1O [Gossypol, gossypol]
- IC50 [5, 28]: 4820 nM
- IC50 [6, 29]: > 100000 nM
- IC50 [6, 30]: > 100000 nM
- drug level in water (2-in-1 poloxamer 188 micelles, gossypol + 17-AAG): 5180 ± 470 µg/mL
- drug level in water (2-in-1 poloxamer 188 micelles, gossypol + paclitaxel): 4650 ± 620 µg/mL
- drug level in water (2-in-1 poloxamer 188 micelles, gossypol + paclitaxel, listed as gossypol): 4650 µg/mL
- drug level in water [9]: 5410 ± 140 µg/mL
- % Remaining Day 0 [7, 20]: 100 ± 4.7%
- % Remaining Day 1 [7, 20]: 89.4 ± 3.3%
- % Remaining Day 0 [7, 21]: 100 ± 5.6%
- % Remaining Day 1 [7, 21]: 98.3 ± 3.6%
- % Remaining Day 0 [7, 22]: 100 ± 4.9%
- % Remaining Day 1 [7, 22]: 89.8 ± 3.7%
- % Remaining Day 0 [7, 23]: 100 ± 4.1%
- % Remaining Day 1 [7, 23]: 95.4 ± 3.6%
- % Remaining Day 0 [7, 31]: 100 ± 4.4%
- % Remaining Day 1 [7, 31]: 97.0 ± 2.5%
- % Remaining Day 0 [7, 32]: 100 ± 7.1%
- % Remaining Day 1 [7, 32]: 89.5 ± 3.8%
- % Remaining Day 0 [7, 26]: 100 ± 3.8%
- % Remaining Day 1 [7, 26]: 82.3 ± 2.6%
- % Remaining Day 0 [7, 27]: 100 ± 3.8%
- % Remaining Day 1 [7, 27]: 81.0 ± 3.0%
- IC50 (A549 NSCLC Cells; A549, 72 h): 6500 ± 3400 nM

- drug loaded [3, 11]: 0.38 ± 0.12 mg/mL
- drug loaded [3, 12]: 0.01 ± 0.001 mg/mL
- drug loaded ([3]; polymer 10 mg/ml, PTX + GSP micelles): 0.87 ± 0.09 mg/mL
- drug loaded [3, 13]: 0.014 ± 0.002 mg/mL
- drug loaded [3, 14]: 0.63 ± 0.14 mg/mL
- drug loaded ([3]; polymer 200 mg/ml, PTX + CYP + GSP micelles, listed as PTX): 6.4 mg/mL and 6.41 ± 0.63 mg/mL
- drug loaded [3, 18]: 0.01 ± 0.01 mg/mL
- drug loaded ([3]; polymer 200 mg/ml, PTX + GSP micelles): 3.49 ± 0.39 mg/mL
- IC50 [5, 28]: 8.7 nM
- IC50 [6, 30]: 12 nM
- % w/w drug(s) @ 24 hr [8]: 63.4 ± 35.4 % w/w
- Initial drug level in water [8]: 6.53 ± 0.31 mg/mL
- Drug level @ 24 hrs in water ([8]; ambient temperature): 4110 ± 2260 µg/mL
- % Remaining Day 0 [7, 20]: 100 ± 9.3%
- % Remaining Day 1 [7, 20]: 34.3 ± 3.1%
- % Remaining Day 0 [7, 21]: 100 ± 8.3%
- % Remaining Day 1 [7, 21]: 89.7 ± 5.2%
- % Remaining Day 0 [7, 24]: 100 ± 12.6%
- % Remaining Day 1 [7, 24]: 27.0 ± 2.9%
- % Remaining Day 0 [7, 25]: 100 ± 6.2%
- % Remaining Day 1 [7, 25]: 90.7 ± 5.1%
- % Remaining Day 0 [7, 31]: 100 ± 9.4%
- % Remaining Day 1 [7, 31]: 66.8 ± 4.1%
- % Remaining Day 0 [7, 32]: 100 ± 6.3%
- % Remaining Day 1 [7, 32]: 93.2 ± 4.9%
- % Remaining Day 0 [7, 26]: 100 ± 4.7%
- % Remaining Day 1 [7, 26]: 99.3 ± 2.2%
- % Remaining Day 0 [7, 27]: 100 ± 3.6%
- % Remaining Day 1 [7, 27]: 87.9 ± 2.7%
SMILES: CC(=O)O[C@H]1C(=O)[C@@]2(C)[C@H]([C@H](OC(=O)c3ccccc3)[C@]3(O)C[C@H](OC(=O)[C@H](O)[C@@H](NC(=O)c4ccccc4)c4ccccc4)C(C)=C1C3(C)C)[C@]1(OC(C)=O)CO[C@@H]1C[C@@H]2O [Paclitaxel, paclitaxel]
- IC50 [6, 29]: 13 nM
- IC50 (A549 NSCLC Cells; A549, free drugs in DMSO stock, 72 hours, n = 3, mean ± SD, two drug combinations molar ratio 1:1, three drug 5:5:1, read-out: IC50): 616 ± 418 nM
